Patent US20040019082A1, “Reversible infertility in male mice following oral administration of alkylated imino sugars: a non-hormonal approach to male contraception” (United Therapeutics Corporation, priority 2002, published 2004)
Where two headings read alike, the source gives them in different places.

Columns and labels:
female C57BL/6 mice = test: Mating assay, fertility of treated female mice; type: in vivo, mouse; conditions: 1200 mg/kg/day for five weeks, four-day mating with untreated males, n=5
Experimental: (§1) Mating assays—To assess the fertility of male mice that were fed on a diet containing an iminosugar, a mating assay was used: typically six week old male C57BL/6 mice in groups of three were administered diet containing compound for five weeks (unless otherwise specified), after which each of them was caged with four untreated female C57BL/6 mice, and provided with standard pelleted chow. Females were at least 11 weeks old, and age-matched in each experiment. The male was removed from the females after 7 or 9 days, depending on the experiment; the females were monitored for vaginal mucous plugs, pregnancies, and, if any, litter sizes. To study any effect on female fertility six-week-old female C57BL/6 mice were treated with NB-DNJ for five weeks, after which each of them was caged with a non-treated age-matched male for four days.
Following a four-day mating period with untreated males, 100% of treated (n=5) as well as of non-treated females (n=4) became pregnant; these mice had 6.2±2.7 and 7.8±1.0 pups per litter, respectively.

[1] = system: testosterone, luteinising and follicle-stimulating hormones; test: Endocrinological assays; type: in vivo, mouse
Experimental: Endocrinological assays—Following termination of mice by asphyxiation in CO2 and cervical dislocation, blood was obtained via cardiac puncture, which was allowed to clot at room temperature (RT). Serum was obtained by centrifugation, and stored at −80° C. until use. Testosterone, luteinising and follicle-stimulating hormones were measured by methods well-known in the art (Huhtaniemi, I., Nikula, H. & Rannikko, S. (1985) J Clin Endocrinol Metab 61, 698-704; Haavisto, A. M., Pettersson, K., Bergendahl, M., Perheentupa, A., Roser, J. F. & Huhtaniemi, I. (1993) Endocrinology 132, 1687-91; van Casteren, J. I., Schoonen, W. G. & Kloosterboer, H. J. (2000) Biol Reprod 62, 886-94.)

epididymal sperm = test: Epididymal sperm count; type: in vivo, mouse; conditions: at loss of fertility caused by the drug
male C57BL/6 mice = test: Mating assay, fertility of male mice; type: in vivo, mouse
Excerpt: Treatment of mice—Male C57BL/6 mice were housed under standard non-sterile conditions. The mice were provided with water ad lib. and prior to drug administration were fed a diet of pelleted mouse chow (expanded Rat and Mouse Chow 3, SDS Ltd.) To administer the compounds of the present invention, the mice were fed a diet of powdered mouse chow (expanded Rat and Mouse Chow 1, ground, SDS Ltd.) containing either NB-DNJ, NB-DGJ, NN-6-MeDGJ, or DNJ. The diet and compound (both as dry solids) were mixed thoroughly, stored at room temperature, and used within 7 days of mixing.
as §1

epididymal spermatozoa = test: Fluorescence microscopy of epididymal spermatozoa (nuclear morphology, acrosomal antigens); type: in vivo, mouse
Experimental: Fluorescence microscopy—For immunofluorescence, freshly exised vasa deferentia were stripped and caudae epididymides were dissociated with forceps in M2 medium, and spermatozoa were allowed to disperse for 15 min. The resultant suspensions were used to prepare smears on glass slides. After drying in air for 1 hr, cells were fixed in methanol for 2 min., dried and stored at room temperature or 4° C. for one to five days. Before immunostaining smears were immersed in methanol for 5 min., dried, and wetted in PBS containing 0.5% BSA and 0.15 M glycine (PBG). Slides were stained with monoclonal antibodies, either Mab18.6 (1:20 in PBG (Moore, H. D., Smith, C. A., Hartman, T. D. & Bye, A. P. (1987) Gamete Res 17, 245-9)), anti-sp56 (1:67 in PBG, clone 7C5, QED Bioscience (Cheng, A., Le, T., Palacios, M., Bookbinder, L. H., Wassarman, P. M., Suzuki, F. & Bleil, J. D. (1994) J Cell Biol 125, 867-78), and goat anti-mouse immunoglobulins γ and light chains-specific fluorescein isothiocyanate-conjugate (Ortho) according to van Dongen et al. (van Dongen, J. M., Willemsen, R., Ginns, E. I., Sips, H. j., Tager, J. M., Barranger, J. A. & Reuser, A. J. (1985) Eur J Cell Biol 39, 179-189.) Following immunostaining, nuclei were stained for 2 min in 5 μg/ml Hoechst 33342 (Molecular Probes); slides were rinsed in distilled water, and mounted with Vectashield (Vector). Fluorescent probes were examined using an Olympus BX50 microscope equipped with a Princeton Instruments CCD camera. Images were aquired, false-coloured, and overlaid with Metamorph v3.5 software, and further processed with Adobe Photoshop.

seminiferous tubules = test: Testis histology; type: in vivo, mouse; conditions: 50 mg/kg/day (FIG. 4B)
Excerpt: Histology and Scanning electronmicroscopy—Testes were obtained from mice perfused with 4% paraformaldehyde, 1% gluteraldehyde, kept in the fixative for two days, and transferred to 70% ethanol. Tissues were post-fixed with 2% osmium tetroxide, embedded in araldite, sectioned at 1 μm, and stained with Toluidine Blue. Sections were examined with a Zeiss Axioskop II, and images were acquired with an Axiocam camera, operated by Axiovision 3.0 software.

[2] = system: ganglioside GM1 on the surface of mouse splenocytes; conditions: cited from earlier work
[3] = 5 mg/kg per day, five weeks in diet
[4] = 2400 mg/kg per day, taken off the drug after five weeks of treatment

With `CCCCN1C[C@H](O)[C@@H](O)[C@H](O)[C@H]1CO` [NB-DNJ, N-butyldeoxynojirimycin] the “females that became pregnant” value (female C57BL/6 mice) was 100%, the pups per litter (female C57BL/6 mice) was 6.2±2.7 and the “serum testosterone, FSH, LH and testicular testosterone” value ([1]; 2400 mg/kg/day, p<0.001) was “significant reduction”. The “serum testosterone, FSH, LH and testicular testosterone” value ([1]; 15, 150 or 1200 mg/kg/day) was “did not change”, the epididymal sperm count (epididymal sperm) was “not associated with a reduction” and the fertility (male C57BL/6 mice; 1 mg/kg per day, five weeks in diet) was “did not affect”. The “fertility (pregnancies per male)” value (male C57BL/6 mice; [3]) was “reduced their fertility”, the litter size (male C57BL/6 mice; [3]) was “reduced” and the fertility (male C57BL/6 mice; 15 mg/kg per day, five weeks in diet) was “completely infertile”. The “fertility, capacity to sire normal-sized litters” value (male C57BL/6 mice; 2400 mg/kg per day oral, one or two weeks of treatment, six-week old males) was “this capacity was maintained”, the “infertility, length of treatment needed” value (male C57BL/6 mice; 2400 mg/kg per day oral, weekly increments) was “infertile after at least three weeks” and the “litter size after withdrawal” value (male C57BL/6 mice; [4]) was “normal-sized litters”. For the same compound, the “regain of fertility after withdrawal” value (male C57BL/6 mice; [4]) was “regained fertility in the fourth week”, the fertility (male C57BL/6 mice; 13 week old males, 2400 mg/kg per day for five weeks) was “complete sterility” and the “frequency of post-coital vaginal mucous plugs (mating behavior)” value (male C57BL/6 mice; NB-DNJ dose range, five weeks in diet) was “not affected”. The “dose required for induced infertility” value (male C57BL/6 mice; oral, male mice) was “at least 15 mg/kg/day”, the “fraction of spermatozoa stained with Mab18.6 or anti-sp56 (acrosomal antigens)” value (epididymal spermatozoa; 15 mg/kg/day) was “below 10%” and the “nuclear shape of cauda epididymal sperm cells” value (epididymal spermatozoa; 150 mg/kg/day (FIGS. 4D-4F)) was “various abnormally shaped nuclei”. For the same compound, the “frequency of antibody staining (acrosomal antigens)” value (epididymal spermatozoa; 1200 mg/kg/day compared with 15-150 mg/kg/day) was “more frequent”, the “frequency of normal nuclear morphology” value (epididymal spermatozoa; 1200 mg/kg/day compared with 50-150 mg/kg/day, p<0.01) was “significantly more often” and the “incidence of (near)-normal acrosomal staining among Mab18.6-positive cells” value (epididymal spermatozoa; 15 to 1200 mg/kg/day, average, n=3) was 31±10%. For the same compound, the “percentage of caudal spermatozoa with (near)-normal nuclei” value (epididymal spermatozoa; minimal dose to achieve complete infertility) was “below 6%”, the “morphology of nuclei of mature spermatids” value (seminiferous tubules) was “aberrant, heterogeneous morphology” and the “vacuolization in seminiferous tubules versus controls” value (seminiferous tubules) was “more extensive vacuolization”. The “reduction of ganglioside GM1 levels” value ([2]; 600 mg/kg per day) was 10% and the “reduction of ganglioside GM1 levels” value ([2]; 2400 mg/kg per day) was 70%.
